Assays:
Format in all cases: in vivo
Settings in all cases: controlled atmosphere 28 days followed by 7 days at 20° C.
Botrytis cinerea = assay: Postharvest dip trials of apples against Botrytis cinerea
Penicillium expansum = assay: Postharvest dip trials of apples against Penicillium expansum
Neofabraea alba = assay: Postharvest dip trials of apples against Neofabraea alba

Structure (SMILES): CCO [Ethanol]
- antimicrobial efficacy indicated as percentage value (Botrytis cinerea; 'Golden Delicious' apples): 13.98%
- antimicrobial efficacy indicated as percentage value (Botrytis cinerea; 'Granny Smith' apples): 16.53%
- antimicrobial efficacy indicated as percentage value (Botrytis cinerea; 'Pink Lady' apples): 2.88%
- antimicrobial efficacy indicated as percentage value (Penicillium expansum; 'Golden Delicious' apples): 18.07%
- antimicrobial efficacy indicated as percentage value (Penicillium expansum; 'Granny Smith' apples): 18.75%
- antimicrobial efficacy indicated as percentage value (Penicillium expansum; 'Pink Lady' apples): 0.16%
- antimicrobial efficacy indicated as percentage value (Neofabraea alba; 'Golden Delicious' apples): 10.41%
- antimicrobial efficacy indicated as percentage value (Neofabraea alba; 'Granny Smith' apples): 21.87%
- antimicrobial efficacy indicated as percentage value (Neofabraea alba; 'Pink Lady' apples): 19.25%
